# Experimental data: patent publication US20160067221A1, “USE OF ERGOTHIONEINE FOR INDUCING ACTIVITY OF NRF2 IN CELL” (China Medical University, priority 2014, published 2016)
# Test system: Nrf2
# Assay: Ergothioneine-induced Nrf2 nuclear translocation after kinase inhibitor pretreatment (Western blot)
# Format: cell-based, human
# Details: inhibitor 2.5 μM 30 minutes, then 500 nM ergothioneine 1 hour
# Description: Given that the ergothioneine can activate the Nrf2 to induce the expression of the downstream antioxidant genes; this example further investigates the pathway of the Nrf2 activated by the ergothioneine.
# The HaCaT cells are incubated with respective pharmacological inhibitors of p38 (SB203580; 20 μM), ERK (PD98059; 20 μM), JNK (SP600125; 20 μM), PI3K (LY294002; 20 μM), PKC (GF109203X; 2.5 μM), or ROS (NAC; 1 mM) for 30 minutes, and then incubated with 500 nM ergothioneine for 1 hour. After the incubation, nuclear extracts and cytosolic extracts are collected to observe the expression of the Nrf2 nuclear translocation. FIG. 12 illustrates that the ergothioneine induces a Nrf2-mediated antioxidant signaling pathway. The data result is represented by mean±SD values; n=3, wherein * represents ρ<0.05 compared to the control group.
compound,measurement,value
CN(C)CCCn1cc(C2=C(c3c[nH]c4ccccc34)C(=O)NC2=O)c2ccccc21 [GF109203X],expression of the Nrf2 nuclear translocation,significantly inhibited
